Where two headings read alike, the source gives them in different places. Values belong to the compound of their own block, whether it stands above or below them.
Tests used:
mT2R5 = biological target: T1, mT2R5 (Mus musculus, UniProt Q9JKT4); experiment: FURA-2 [Ca2+]i imaging in HEK-293 cells expressing Gα15 and rho-mT2R5 (taster, DBA/2 allele); assay type: cell-based; details: for [Ca2+]i response (FURA-2): 1.5 μM cycloheximide
T1 construct: expressed in transfected cells; host or cells: modified HEK-293 cells (PEAKrapid) expressing Gα15; pEAK10 vector
T1 sequence (Q9JKT4 1-300): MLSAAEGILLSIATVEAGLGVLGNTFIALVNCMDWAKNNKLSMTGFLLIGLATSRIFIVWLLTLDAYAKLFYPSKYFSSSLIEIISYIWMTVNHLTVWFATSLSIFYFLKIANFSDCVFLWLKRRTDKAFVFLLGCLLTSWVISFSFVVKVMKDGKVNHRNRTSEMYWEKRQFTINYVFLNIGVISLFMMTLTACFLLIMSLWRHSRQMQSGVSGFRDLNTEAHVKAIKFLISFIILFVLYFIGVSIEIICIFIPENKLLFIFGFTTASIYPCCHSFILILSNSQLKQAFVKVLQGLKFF
Excerpt: In this system, receptor activation leads to increases in intracellular calcium [Ca2+]i, which can be monitored at the single cell level using the FURA-2 calcium-indicator dye (Tsien et al., Cell Calcium 6:145-157 (1985)). To test and optimize Gα15 coupling, two different GPCRs, a Gαi-coupled μ-opioid receptor (Reisine, Neuropharm. 34:463-472 (1995)) and a Gαq-coupled mGluR1 receptor (Masu et al., Nature 349:760-765 (1991)), were used. Transfection of these receptors into HEK-293 cell produced robust, agonist-selective, and Gα15-dependent Ca^2+ responses (FIG. 1).
A number of studies have shown that many GPCRs, in particular sensory receptors, require specific “chaperones” for maturation and targeting through the secretory pathway (Baker et al., Embo J 13:4886-4895 (1994); Dwyer et al., Cell 93:455-466 (1998)). Recently, Krautwurst et al. (Cell 95:917-926 (1998)) generated chimeric receptors consisting of the first 20 amino acids of rhodopsin and various rodent olfactory receptors. These were targeted to the plasma membrane and functioned as odorant receptors in HEK-293 cells. To determine whether rhodopsin sequences can also help target T2Rs to the plasma membra, rhodopsin-T2R chimeras (rho-T2Rs) were constructed. […] Similar results were obtained with 11 human and 16 rodent T2Rs (see below). To further enhance the level of T2R expression, rho-T2Rs were placed under the control of a strong EF-1α promoter, and introduced as episomal plasmids into modified HEK-293 cells expressing Gα15 (pEAKrapid cells).
A bridge overlap PCR extension technique was used to generate rho-T2R chimeras, which contain the first 39 amino acids of bovine rhodopsin in frame with human and rodent T2R coding sequences (Mehta and Singh, Biotechniques 26:1082-1086 (1999). All receptors were cloned into a pEAK10 mammalian expression vector (Edge Biosystems, MD). Modified HEK-293 cells (PEAK^rapid cells; Edge BioSystems, MD) were grown and maintained at 37° C. in UltraCulture medium (Bio Whittaker) supplemented with 5% fetal bovine serum, 100 μg/ml Gentamycin sulphate (Fisher), 1 μg/ml Amphotericin B and 2 mM GlutaMax I (Lifetechnologies). For transfection, cells were seeded onto matrigel coated 24-well culture plates or 35 mm recording chambers. After 24 h at 37° C., cells were washed in OptiMEM medium (Lifetechnologies) and transfected using LipofectAMINE reagent (Lifetechnologies). Transfection efficiencies were estimated by co-transfection of a GFP reporter plasmid, and were typically >70%. Immunofluoresence staining, and activity assays were performed 36-48 h after transfection.
Transfected cells were washed once in Hank's balanced salt solution with 1 mM sodium pyruvate and 10 mM HEPES, pH 7.4 (assay buffer), and loaded with 2 μM FURA-2 AM (Molecular Probes) for 1 h at room temperature. The loading solution was removed and cells were incubated in 200 μl of assay buffer for 1 h to allow the cleavage of the AM ester. For most experiments, 24-well tissue culture plates containing cells expressing a single rho-T2R were stimulated with 200 μl of a 2× tastant solution (see next section). [Ca^2+]i changes were monitored using a Nikon Diaphot 200 microscope equipped with a 10×/0.5 fluor objective with the TILL imaging system (T.I.L.L Photonics GmbH). Acquisition and analysis of the fluorescence images used TILL-Vision software. Generally, [Ca^2+]i was measured for 80-120 s by sequentially illuminating cells for 200 ms at 340 nm and 380 nm and monitoring the fluorescence emission at 510 nm using a cooled CCD camera. The F340/F380 ratio was analyzed to measure [Ca^2+]i.
Kinetics of activation and deactivation were measured using a bath perfusion system. Cells were seeded onto a 150 μl microperfusion chamber, and test solutions were pressure-ejected with a picospritzer apparatus (General Valve, Inc.). Flow-rate was adjusted to ensure complete exchange of the bath solution within 4-5 s. […]

[1] = biological target: T2, mT2R5 coupling to gustducin (Mus musculus, UniProt Q9JKT4); experiment: Tastant-induced GTPγS binding to gustducin with insect cell membranes containing rho-mT2R5; assay type: biochemical
T2 construct: infectious Bacmid containing rhodopsin tagged mT2R5 (DBA/2-allele) was produced using the Bac-to-Bac system; rhodopsin tag (rho); made in house; host or cells: insect larval cells infected with recombinant Bacmid (Bac-to-Bac baculovirus system); membrane preparation
T2 sequence (Q9JKT4 1-300): T1 sequence (Q9JKT4 1-300)
Experimental: To investigate the selectivity of T2R-G-protein coupling, mT2R5 was chosen for study because its activation by cycloheximide recapitulates mouse taste responses. Rho-tagged mT2R5 and gustducin were prepared using a baculovirus expression system. mT2R5-containing membranes were incubated with various purified G-proteins, including gustducin, and measured tastant-induced GTP-γS binding (Hoon et al., Biochem J 309:629-636 (1995)). Specifically, infectious Bacmid containing rhodopsin tagged mT2R5 (DBA/2-allele) was produced using the Bac-to-Bac system (Lifetechnologies, MD). Insect larval cells were infected for 60 h with recombinant Bacmid and membranes were prepared as described previously (Ryba and Tirindelli, J Biol Chem, 270:6757-6767 (1995)). Peripheral proteins were removed by treatment with 8 M urea and membranes were resuspended in 10 mM HEPES pH7.5, 1 mM EDTA and 1 mM DTT. The expression of rho-mT2R5 was assessed by Western blot using mAb B6-30 and quantitated by comparison with known amounts of rhodopsin. Approximately 300 pmol of rho-mT2R5 could be obtained from 2×10^8 infected cells. Gustducin and Gβ1γ8 heterodimers were isolated as described previously (Hoon et al., Biochem J 309:629-636 (1995); Ryba and Tirindelli, J Biol Chem, 270:6757-6767 (1995)). Receptor-catalyzed exchange of GDP for GTPγS on gustducin and other G-protein α-subunits was measured in the presence of 10 nM rho-mT2R5, 100 μM GDP, and 20 μM Gβ1γ8. All measurements were made at 15-minute time points, and reflect the initial rate of GTPγS binding.

[2] = system: Cyx taster and non-taster mouse strains; details: cited from earlier work; for taste behaviour: non-taster strains

SMILES: C[C@@H]1C[C@@H]([C@H](O)CC2CC(=O)NC(=O)C2)C(=O)[C@@H](C)C1 [cycloheximide]
EC50 (mT2R5): 500 nM
response of cells expressing mT2R5 (mT2R5): specifically responded
response to successive applications (mT2R5): significantly reduced responses
threshold of response (mT2R5): ~0.2 µM
[Ca2+]i response (FURA-2) (mT2R5; absence of Gα15): No increase in [Ca2+]i
[Ca2+]i response (FURA-2) (mT2R5; with Gα15): robust Gα15 dependent responses
specificity of [Ca2+]i response (mT2R5; 5 μM): highly specific
[Ca2+]i changes in cells lacking receptor or Gα15 (mT2R5; 5000-fold higher concentration): did not trigger [Ca2+]i changes
cells responding (mT2R5; entire camera field): > 70%
response to prolonged exposure (mT2R5; exposure >10 s): adaptation
response under superfusion (mT2R5; micromolar concentrations): robust transient responses
latency of response (mT2R5; microperfusion chamber): < 1 s
receptor activation by tastant pulses (mT2R5; multiple pulses of 2 μM): robust receptor activation
Kd [1]: 14.8 µM
coupling of mT2R5 to gustducin [1]: exquisite cycloheximide-dependent coupling
gustducin activation ([1]; 300 μM): activate gustducin
avoidance threshold ([2]; Cyx taster strains): 0.25
taste behaviour ([2]; at 8 μM): strongly avoid
taste behaviour ([2]; at 1): non-tasters
decrease in sensitivity ([2]; non-tasters vs taster strains): ~8 fold
sensitivity threshold ([2]; rodents): ~0.25 µM

[Ca2+]i response to tastant (mT2R5; 5 mM): not observed
gustducin activation ([1]; 1 mM): not
SMILES: CC[N+](CC)(CC(=O)Nc1c(C)cccc1C)Cc1ccccc1 [denatonium]

— patent US9817000B2, “Method for identifying compounds that modulate a T2R taste receptor” (The Regents of the University of California, priority 1999, dated 2017)
